This note sets out measurements from US20260317324A1, “BIFUNCTIONAL COMPOUNDS FOR DEGRADING BRAF VIA UBIQUITIN PROTEOSOME PATHWAY” (Nurix Therapeutics, Inc., priority 2023, published 2026).

As a reminder, the DC50 is the midpoint of the concentration-degradation curve. By Dmax is commonly meant the largest share of the target that was removed. Read a high Dmax as deep degradation.

The experiment has as its target T1, BRAF V600E (Homo sapiens, UniProt P15056, V600E).
T1 construct: endogenous C-terminal HiBiT fusion tag on BRAF V600E allele; endogenous in cells; host or cells: A375 clone 1F10 (CRISPR-Cas9 knock-in of the HiBiT tag; parental A375 from ATCC)
Description: BRAF HiBiT degradation assay, C-terminal HiBiT-tagged BRAF V600E A375 cells (clone 1F10), Nano-Glo HiBiT Lytic assay. Conditions: for Dmax: A-375. Format: cell-based. The source says:
An A375 cell line expressing a homozygous V600E mutation was purchased from ATCC (Manassas, VA, USA). An A375 clone 1F10 cell line with an endogenous C-terminal HiBiT fusion tag on BRAF V600E allele was generated internally using CRISPR-Cas9 technology and cultured in DMEM, high glucose supplemented with 10% FBS and 1× GlutaMAX. A HCT-116 BRAF−/− cell line overexpressing the C-terminal HiBiT-tagged G466V, G469A, and D594G mutants were generated by lentiviral transduction, externally at Biosettia Inc (San Diego, CA, USA). The stably transfected cells were cultured in RPMI media supplemented with 10% FBS, 1× GlutaMAX, and 0.25 μg/ml puromycin. DMEM medium, RPMI 1640 medium, GlutaMAX, fetal bovine serum (FBS), and puromycin were purchased from Gibco (Grand Island, NY, USA). HCT-116 BRAF−/− cells were purchased from Horizon Discovery (Waterbeach, UK).
The C-terminal HiBiT tagged BRAF A375 cells (monoclonal cell line, cell clone 1F10) were seeded at a density of 10,000 cells/well in 30 μL media (DMEM, high glucose supplemented with 10% FBS and 1× GlutaMAX) in white opaque 384-well plates (Corning #3570) from column 1 to column 23. The wildtype A375 cells were seeded in column 24 at the same cell density in 30 μL media. Cells were incubated at 37° C. with 5% CO2 for 24 h.
Intermediate compound dilution series (5-point, ranging from 5 mM to 0.5 μM, 10-fold dilutions in DMSO) were prepared in a source plate (Beckman Coulter cat. no. 001-16128). Final compound dilution series (11-point, ranging from 1 μM to 0.01 nM, half-log dilutions in DMSO) were stamped into the assay plate (Corning #3570, column 1-11 and 12-22) using the Echo Acoustic Liquid Handler (Beckman Coulter). Each compound was plated in duplicate, and the total volume of compound DMSO solution was 60 nL/well (0.2% final DMSO concentration). DMSO was included in wells A23-L23 and A24-L24. The DMSO-treated HiBiT-tagged samples served as Negative Control (NC) and the DMSO-treated wildtype samples served as Background Control (BC) for the HiBiT assay.
HiBiT signal was measured by a Nano-Glo HiBiT Lytic assay (Promega cat. no. N3050). HiBiT lytic detection reagent (Nano-Glo HiBiT Lytic Buffer with 1:50 Nano-Glo HiBiT Lytic Substrate and 1:100 LgBiT Protein, 40 μL) was added using Bravo. The mixture was incubated at room temperature, in the dark, and with gentle shaking for 10 min. Luminesce units (LU) were read on an EnVision plate reader 2105 (Perkin Elmer).
Percent protein remaining and viability remaining per sample were calculated as follows: […]
% Protein remaining values were plotted as a function of compound concentration. XC50 (DC50) values were determined by fitting curves using the following equation:
For the HiBiT degradation assay, the key parameters reported include: • The dose of compound that produces 50% degradation (DC50 at 50%): • DC50 at 50%: the Fitted X value (Conc.) at Y=50 (response) • Observed Dmax (Obs. Dmax) is the percentage protein degraded at maximal compound effect relative to DMSO-treated control: […]
In general terms: The HiBiT peptide binds its large partner to form an active luciferase.

The mark [1] stands for this setting: A375 (BRAF V600E), DC50 at 50%: fitted conc. at Y=50.
Where [2] appears, read: A375 (BRAF V600E), percentage protein degraded at maximal compound effect relative to DMSO.

T1 sequence (P15056 whole entry V600E, the tested form may be a part): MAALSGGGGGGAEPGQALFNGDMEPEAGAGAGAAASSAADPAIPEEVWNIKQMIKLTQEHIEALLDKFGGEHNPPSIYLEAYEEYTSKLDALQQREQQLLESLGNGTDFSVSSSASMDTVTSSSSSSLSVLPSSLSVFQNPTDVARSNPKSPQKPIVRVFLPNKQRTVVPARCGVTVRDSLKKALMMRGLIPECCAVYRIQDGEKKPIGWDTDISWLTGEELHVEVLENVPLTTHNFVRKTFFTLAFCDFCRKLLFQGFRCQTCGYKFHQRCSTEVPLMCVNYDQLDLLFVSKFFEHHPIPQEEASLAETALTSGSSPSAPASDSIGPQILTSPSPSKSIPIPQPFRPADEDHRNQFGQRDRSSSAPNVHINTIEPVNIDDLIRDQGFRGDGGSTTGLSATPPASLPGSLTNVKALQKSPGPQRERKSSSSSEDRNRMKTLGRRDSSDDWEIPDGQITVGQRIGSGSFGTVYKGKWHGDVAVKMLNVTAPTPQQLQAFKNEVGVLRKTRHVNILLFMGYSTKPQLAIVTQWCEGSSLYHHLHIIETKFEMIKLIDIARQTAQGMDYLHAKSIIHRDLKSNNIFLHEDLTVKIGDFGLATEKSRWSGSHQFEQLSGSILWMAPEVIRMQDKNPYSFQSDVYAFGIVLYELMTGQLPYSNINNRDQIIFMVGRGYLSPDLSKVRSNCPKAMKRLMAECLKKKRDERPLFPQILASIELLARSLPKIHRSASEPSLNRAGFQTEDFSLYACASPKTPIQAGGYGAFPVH

In turn, `CCCS(=O)(=O)Nc1cccc(-c2nc(C(C)(C)C)sc2-c2ccnc(Nc3cnn(C4CCN(C(=O)[C@@H]5CCN(c6ccc(C7CCC(=O)NC7=O)cn6)C5)CC4)c3)n2)c1F` (mixture of isomers) [Compound 106, N-[3-(2-tert-butyl-5-{2-[(1-{1-[(3R)-1-{5-[(3RS)-2,6-dioxopiperidin-3-yl]pyridin-2-yl}pyrrolidine-3-carbonyl]piperidin-4-yl}-1H-pyrazol-4-yl)amino]pyrimidin-4-yl}-1,3-thiazol-4-yl)-2-fluorophenyl]propane-1-sulfonamide] had a half-maximal degradation concentration (DC50) under setting [1] of 50 to 500 nM. Under setting [2], this compound had a Dmax of 30 to 70%.
Take `CCCS(=O)(=O)Nc1cccc(-c2nc(C(C)(C)C)sc2-c2ccnc(Nc3ccc(C4CCN(C(=O)CN5CCC6(CC5)CN(c5ccc7c(c5)C(=O)N(C5CCC(=O)NC5=O)C7=O)C6)CC4)cc3)n2)c1F` (racemic) [Compound 153, Rac-N-[3-(2-tert-butyl-5-{2-[(4-{1-[2-(2-{2-[(3R)-2,6-dioxopiperidin-3-yl]-1,3-dioxo-2,3-dihydro-1H-isoindol-5-yl}-2,7-diazaspiro[3.5]nonan-7-yl)acetyl]piperidin-4-yl}phenyl)amino]pyrimidin-4-yl}-1,3-thiazol-4-yl)-2-fluorophenyl]propane-1-sulfonamide]: the DC50 under setting [1] was 50 to 500 nM. The same compound had a Dmax under setting [2] of 30 to 70%.
For `CCCS(=O)(=O)Nc1cccc(-c2nc(C3CCN(C(=O)C4(C)CCN(C(=O)C5CCN(c6ccc(C7CCC(=O)NC7=O)cn6)CC5)CC4)CC3)sc2-c2ccncc2)c1F` (racemic) [Compound 182, Rac-N-[3-(2-{1-[1-(1-{5-[(3R)-2,6-dioxopiperidin-3-yl]pyridin-2-yl}piperidine-4-carbonyl)-4-methylpiperidine-4-carbonyl]piperidin-4-yl}-5-(pyridin-4-yl)-1,3-thiazol-4-yl)-2-fluorophenyl]propane-1-sulfonamide], under setting [1], the DC50 is < 10 nM. Moreover, under setting [2], the maximal degradation (Dmax) is > 70%.
With `CCCS(=O)(=O)Nc1cccc(-c2nc(C(C)(C)C)sc2-c2ccnc(Nc3ccc4c(c3)CCN(C(=O)CN3CCN(c5cc(C6CCC(=O)NC6=O)ccn5)CC3)C4)n2)c1F` (racemic) [Compound 120, Rac-N-(3-{2-tert-butyl-5-[2-({2-[2-(4-{4-[(3R)-2,6-dioxopiperidin-3-yl]pyridin-2-yl}piperazin-1-yl)acetyl]-1,2,3,4-tetrahydroisoquinolin-6-yl}amino)pyrimidin-4-yl]-1,3-thiazol-4-yl}-2-fluorophenyl)propane-1-sulfonamide], the DC50 under setting [1] lay within 50 to 500 nM. Besides, under setting [2], the greatest degradation seen (Dmax) fell in the range of 30 to 70%.
Turning to `CCCS(=O)(=O)Nc1cccc(-c2nc(C3CCC4(CC3)CCN(C(=O)CC3CCN(C5CCN(c6ccc7c(c6)C(=O)N(C6CCC(=O)NC6=O)C7=O)CC5)CC3)CC4)sc2-c2ccnc(N)n2)c1F` (racemic) [Compound 248, Rac-N-{3-[5-(2-aminopyrimidin-4-yl)-2-{3-[2-(1′-{2-[(3R)-2,6-dioxopiperidin-3-yl]-1,3-dioxo-2,3-dihydro-1H-isoindol-5-yl}-[1,4′-bipiperidin]-4-yl)acetyl]-3-azaspiro[5.5]undecan-9-yl}-1,3-thiazol-4-yl]-2-fluorophenyl}propane-1-sulfonamide], the DC50 (A375 (BRAF V600E, Class 1), DC50 at 50% degradation) was < 10 nM. The Dmax (A375 (BRAF V600E, Class 1), observed Dmax, % protein degraded relative to DMSO control) was > 70%.
Turning to `CCCS(=O)(=O)Nc1cccc(-c2nc(C(C)(C)C)sc2-c2ccnc(Nc3cnn(CC4CCN(C(=O)CN5CCN(c6cc(C7CCC(=O)NC7=O)ccn6)CC5)CC4)c3)n2)c1F` (racemic) [Compound 113, Rac-N-{3-[2-tert-butyl-5-(2-{[1-({1-[2-(4-{4-[(3R)-2,6-dioxopiperidin-3-yl]pyridin-2-yl}piperazin-1-yl)acetyl]piperidin-4-yl}methyl)-1H-pyrazol-4-yl]amino}pyrimidin-4-yl)-1,3-thiazol-4-yl]-2-fluorophenyl}propane-1-sulfonamide], under setting [1], the DC50 lay within 10 to 50 nM. Moreover, under setting [2], the Dmax was > 70%.
On the same counts, the results for `CCCS(=O)(=O)Nc1cccc(-c2nc(C(C)(C)C)sc2-c2ccnc(NC3CCN(C4CCN(CC5CCN(c6ccc(C7CCC(=O)NC7=O)cn6)CC5)CC4)CC3)n2)c1F` (racemic) [Compound 136, Rac-N-(3-{2-tert-butyl-5-[2-({1′-[(1-{5-[(3R)-2,6-dioxopiperidin-3-yl]pyridin-2-yl}piperidin-4-yl)methyl]-[1,4′-bipiperidin]-4-yl}amino)pyrimidin-4-yl]-1,3-thiazol-4-yl}-2-fluorophenyl)propane-1-sulfonamide] are 50 to 500 nM and 30 to 70%.
On the same counts, the results for `CCCS(=O)(=O)Nc1cccc(-c2nc(C(C)(C)C)sc2-c2ccnc(NC[C@H]3CCN(CC4CCN(c5ccc(C(=O)N[C@H]6CCC(=O)NC6=O)nc5)CC4)C3)n2)c1F` [Compound 143, 5-(4-{[(3R)-3-{[(4-{2-tert-butyl-4-[2-fluoro-3-(propane-1-sulfonamido)phenyl]-1,3-thiazol-5-yl}pyrimidin-2-yl)amino]methyl}pyrrolidin-1-yl]methyl}piperidin-1-yl)-N-[(3S)-2,6-dioxopiperidin-3-yl]pyridine-2-carboxamide] are 50 to 500 nM and 30 to 70%.
`CCCS(=O)(=O)Nc1cccc(-c2nc(C3CCN(CC4CCN(C(=O)CN5CCc6cc(C7CCC(=O)NC7=O)ccc6C5)CC4)CC3)sc2-c2ccnc(N)n2)c1F` (racemic) [Compound 226, Rac-N-{3-[5-(2-aminopyrimidin-4-yl)-2-(1-{[1-(2-{6-[(3R)-2,6-dioxopiperidin-3-yl]-1,2,3,4-tetrahydroisoquinolin-2-yl}acetyl)piperidin-4-yl]methyl}piperidin-4-yl)-1,3-thiazol-4-yl]-2-fluorophenyl}propane-1-sulfonamide] yielded a half-maximal degradation concentration (DC50) under setting [1] of 50 to 500 nM. Further, under setting [2], the Dmax was 30 to 70%.
For `CCCS(=O)(=O)Nc1cccc(-c2cn(-c3ccc(C(=O)N4CCN(C(=O)CC5CCN(c6ccc(C7CCC(=O)NC7=O)cn6)CC5)CC4)cc3)nc2-c2ccncc2)c1F` (racemic) [Compound 13, Rac-N-{3-[1-(4-{4-[2-(1-{5-[(3R)-2,6-dioxopiperidin-3-yl]pyridin-2-yl}piperidin-4-yl)acetyl]piperazine-1-carbonyl}phenyl)-3-(pyridin-4-yl)-1H-pyrazol-4-yl]-2-fluorophenyl}propane-1-sulfonamide] the same measures were 10 to 50 nM and > 70%.
For `CCCS(=O)(=O)Nc1cccc(-c2nc(C(C)(C)C)sc2-c2ccnc(Nc3cccc(OC4CCN(CC5CCN(c6ccc7c(=O)n(C8CCC(=O)NC8=O)ccc7c6)CC5)CC4)c3)n2)c1F` (racemic) [Compound 71, Rac-N-{3-[2-tert-butyl-5-(2-{[3-({1-[(1-{2-[(3R)-2,6-dioxopiperidin-3-yl]-1-oxo-1,2-dihydroisoquinolin-6-yl}piperidin-4-yl)methyl]piperidin-4-yl}oxy)phenyl]amino}pyrimidin-4-yl)-1,3-thiazol-4-yl]-2-fluorophenyl}propane-1-sulfonamide] the same measures were 10 to 50 nM and 30 to 70%.
On the same counts, the results for `CCN(C)S(=O)(=O)Nc1cccc(-c2nc(C(C)(C)C)sc2-c2ccnc(Nc3ccc(N4CCN(C(=O)C5CN(c6ccc(C7CCC(=O)NC7=O)cn6)C5)CC4)cn3)n2)c1F` (racemic) [Compound 53, Rac-(3S)-3-[6-(3-{4-[6-({4-[2-tert-butyl-4-(3-{[ethyl(methyl)sulfamoyl]amino}-2-fluorophenyl)-1,3-thiazol-5-yl]pyrimidin-2-yl}amino)pyridin-3-yl]piperazine-1-carbonyl}azetidin-1-yl)pyridin-3-yl]piperidine-2,6-dione] are < 10 nM and > 70%.
